{
  "source": "patent US20070154449A1",
  "about": "“TIGHT JUNCTION MODULATING PEPTIDES FOR ENHANCED MUCOSAL DELIVERY OF THERAPEUTIC COMPOUNDS” (Nastech Pharmaceutical Company Inc., priority 2005, published 2007)",
  "key": {"[1]": {"test": "Intranasal PYY(3-36) pharmacokinetics in rabbits with various TJMPs (Example 10)", "type": "in vivo, New Zealand White rabbits", "details": "rabbit", "text": "The tubes were chilled until […]."}, "[2]": {"test": "Chemical stability of PN159 in solution (stability indicating HPLC)", "type": "physicochemical", "details": "for loss of native PN159: 25° C.", "experimental": "The chemical stability of the PN159 was determined under therapeutically relevant storage conditions. A stability indicating HPLC method was employed. Solutions (50 mM) were stored at various pH (4.0, 7.3, and 9.0) and temperature (5° C., 25° C., 35° C., 40° C., and 50° C.) conditions. Samples at pH 4 contained 10 mM citrate buffer. Samples at pH 7.3 and 9.0 contained 10 mM phosphate buffer. […] For example, at 5° C. and pH 4.0 or pH 7.3, there was essentially 100% recovery of PN159 for six month storage. […] The pH range of 4.0 to 7.3 and the temperature range of refrigerated to ambient are most relevant for intranasal formulations."}, "[3]": {"system": "human-derived tracheal/bronchial epithelial cells (EpiAirway™ Tissue model system)", "test": "FITC-Dextran (FD3) permeation assay, EpiAirway tissue model", "type": "cell-based", "details": "25 μM peptide, 1 h at 37° C.", "experimental": "A FITC labeled dextran with a molecular weight 3000 (FD3) was used to assess the efficacy of individual TJMP on epithelial cell monolayer permeation. The tissue insert plates were transferred to a 96-well receiver plate containing 200 μl of DPBS++ as basal media. The apical surface of each tissue culture insert was incubated with a 20 μl sample of a single test formulation (refer to Table 4 in Example 2 for details of test formulations) for one hour at 37° C. in the dark on a shaker (˜100 rpm). Following the 1 hour incubation period, underlying basal media samples were taken from each tissue culture insert and temporarily stored in the dark at room temperature until FD3 levels were quantified by fluorescence spectroscopy. For FD3 measurements, a 150 μl of basal media sample was transferred to a black, clear bottom 96-well plate. Fluorescence emission at 528/20 following excitation at 485/20 were measured using a FLx800 fluorescence plate reader from Biotek Instruments.\nPermeation was calculated as: [formula] [formula] Formula terms for permeation defined: […]\n(§1) Of the total 300 μl volume for each test formulation, only a 20 μl sample was applied to the human-derived tracheal/bronchial epithelial cells (EpiAirway™ Tissue model system) in order to assess the effect each test formulation had on TER, LDH and sample permeation."}, "[4]": {"system": "human-derived tracheal/bronchial epithelial cells (EpiAirway™ Tissue model system)", "test": "Cytotoxicity (LDH assay), EpiAirway tissue model", "type": "cell-based", "experimental": "The amount of cell death was assayed by measuring the release of lactate dehydrogenase (LDH) from the cells into the apical medium using a CytoTox 96 Cytotoxicity Assay Kit (Promega Corp., Madison, Wis.). One percent Octylphenolpoly (ethyleneglycolether)×(Triton X-100™) diluted in phosphate buffered saline (PBS) causes 100% lysis in cultured cells and served herein as a positive control for the LDH assay. Following the one hour incubation period with a test formulation (refer to Table 4 in Example 2 for details of test formulations), the total liquid volume of each insert was brought to a final volume of 200 μl with culture medium. The apical medium was then mixed by pipetting four times with a multichannel pipette set to a 100 μl volume. After mixing, a 100 μl sample from the apical side of each insert was transferred to a new 96-well plate. The apical media samples were sealed with a plate sealer and stored at room temperature for same day analysis or stored overnight at 4° C. for analysis the next day. To measure LDH levels, 5 μl of the 100 μl apical media sample was diluted in 45 μl DPBS in a new 96-well plate. Fresh, cell-free culture medium will be used as a blank. Fifty microliters of substrate solution was added to each well and incubated for 30 minutes at room temperature away from direct light. Following the 30 minute incubation, 50 μl of stop solution was added to each well. Optical density (OD) was measured at 490 nm with a uQuant absorbance plate reader from Biotek Instruments. The measurement of LDH release into the apical media indicates relative cytotoxicity of the samples. Percent cytotoxicity for each test formulation was calculated by subtracting the measured absorbance of the PBS control (basal level of LDH release) from the measured absorbance of the individual test formulation and then dividing that value by the measured absorbance for the 1% Triton X-100™ positive control, multiplied by 100.\nThe formula used to calculate percent cytotoxicity is as follows: [formula] Osmolality\nas §1"}, "[5]": {"system": "human-derived tracheal/bronchial epithelial cells (EpiAirway™ Tissue model system)", "test": "Transepithelial electrical resistance (TER), EpiAirway tissue model", "type": "cell-based", "experimental": "EpiAirway™ culture membranes were received the day before the experiments started. They are shipped in phenol red-free and hydrocortisone-free Dulbecco's Modified Eagle's Medium (DMEM). The cells are ciliated and psudostratefied, grown to confluency on Millipore Multiscreen Caco-2 96-well assay system comprised of a polycarbonate filter system. Upon receipt, the insert system will be stored unopened at 4° C. and/or cultured in 250 μl basal media per well (phenol red-free and hydrocortisone-free Dulbecco's Modified Eagle's Medium (DMEM)) at 37° C./5% CO2 for 24 hours before use.\nTER measurements were taken using the REMS Autosampler (World Precision Instruments, Sarasota, Fla.) with the electrode leads. The electrodes and a tissue culture blank insert will be equilibrated for at least 20 minutes in MatTek Air-100™ medium with the power off prior to checking calibration. The background resistance of the insert system has been established by multiple measurements of a blank insert plate and the same value was used for each test on the platform. Time zero TER (TER0) was measured before incubation of the inserts with the test formulation. The top electrode will be as adjusted so that it is close to, but not making contact with, the top surface of the insert membrane. Background resistance of the blank insert should be about 5-20 ohms. For each TER determination, 100 μl of MatTek Air-100™ medium was added to the insert and 250 μl in the basal well followed by placement in the Endohm chamber. All TER values are reported as a function of the surface area of the tissue. Resistance was expressed as both Ohms*cm^2 and percent original TER value.\nTER values were calculated as: [formula] [formula] Formula terms for TER calculation defined: […]\nA decrease in TER value relative to the control value indicates a decrease in cell membrane resistance and an increase in mucosal epithelial cell permeability.\nas §1"}, "[6]": {"system": "in vitro epithelial tissue model", "test": "Cell viability (MTT assay), in vitro epithelial tissue model", "details": "galantamine lactate 40 mg/ml and PN159 at all concentrations tested (25, 50, 100 μM)"}, "[7]": {"details": "PYY(3-36) in plasma, 205 μg/kg intranasal with the named TJMP (concentration per Table 11, 50-1000 μM) or PBS, mean"}},
  "data": [
    {"smiles": "CC(C)C[C@H](NC(=O)[C@H](C)NC(=O)[C@H](CCCCN)NC(=O)[C@H](CC(C)C)NC(=O)[C@H](C)NC(=O)[C@H](CC(C)C)NC(=O)[C@H](CCCCN)NC(=O)[C@H](CC(C)C)NC(=O)[C@H](C)NC(=O)[C@H](CC(C)C)NC(=O)[C@@H](N)CCCCN)C(=O)N[C@@H](CCCCN)C(=O)N[C@@H](C)C(=O)N[C@@H](C)C(=O)N[C@@H](CC(C)C)C(=O)N[C@@H](CCCCN)C(=O)N[C@@H](CC(C)C)C(=O)N[C@@H](C)C(N)=O", "note": "[PN159]", "values": [
      {"measurement": "In Vivo Tier Ranking", "setting": "[1]; PYY(3-36) 205 μg/kg intranasal, TJMP concentration per Table 11: PN159 50 μM, PN161, PN202 100 μM, PN27 250 μM, PN58, PN73, PN228 500 μM, PN183, PN556 1000 μM", "result": "I"},
      {"measurement": "AUCinf", "setting": "[1]; [7]", "result": "1.55e+06", "unit": "pg·min/mL"},
      {"measurement": "AUClast", "setting": "[1]; [7]", "result": "1.52e+06", "unit": "pg·min/mL"},
      {"measurement": "Cmax", "setting": "[1]; [7]", "result": 30.2, "unit": "ng/mL"},
      {"measurement": "T1/2", "setting": "[1]; [7]", "result": 30.2, "unit": "min"},
      {"measurement": "Tmax", "setting": "[1]; [7]", "result": 17.0, "unit": "a min"},
      {"measurement": "loss of native PN159", "setting": "[2]; pH 4, after six months", "result": 7, "unit": "%"},
      {"measurement": "loss of native PN159", "setting": "[2]; pH 7, after six months", "result": 26, "unit": "%"},
      {"measurement": "chemical stability of PN159", "setting": "[2]; pH 9 and/or elevated temperature, e.g., 40 to 50° C.", "result": "rapid deterioration"},
      {"measurement": "% FD3 Permeation", "setting": "[3]", "result": 8, "unit": "%"},
      {"measurement": "LDH", "setting": "[4]; 25 μM peptide, 1 h incubation, % of 1% Triton X-100 control", "result": 31, "unit": "%"},
      {"measurement": "cytotoxicity as measured by LDH", "setting": "[4]; PN159 (25, 50, 100 μM) with galantamine lactate 40 mg/ml", "result": "low"},
      {"measurement": "% T0 TER", "setting": "[5]; 25 μM peptide, pH 7, 20 μl applied", "result": 7, "unit": "%"},
      {"measurement": "TER in the presence of galantamine", "setting": "[5]; 25, 50, 100 μM PN159 with 40 mg/ml galantamine lactate, pH 5.0", "result": "reduced TER"},
      {"measurement": "Cell viability (MTT)", "setting": "[6]", "result": "> 80", "unit": "%"}
    ]}
  ]
}
